Results from patent US4474783A, “Cyclopropylmethyl piperazines, the process for preparing the same and their use in therapeutics” (Innothera, priority 1980, dated 1984).

Tests used:
[1] = acute toxicity, intravenous, male mice (LD50, Litchfield and Wilcoxon); details: mouse, in vivo; for LD50 at 168 h: i.v., 10 animals per group, 7 days observation, 95% confidence limit in brackets
Protocol: A toxicological study was also carried out on the compounds according to the invention.
More particularly, the acute toxicity was studied by introduction into the veins of male mice (10 animals per group), E.O.P.S. of the Swiss strain (bred by EVIC-CEBA).
The compounds to be tested were rendered soluble in physiological serum at variable concentrations and the solution obtained injected into the veins in an amount of 10 ml per kg of body weight. Administration was carried out in 20 seconds.
The animals were kept under clinical observation for three hours after administration and then daily for 7 days.
The lethal doses 50 (LD50) were calculated using the method of Litchfield and Wilcoxon (J. Pharmacol. Exp. Therap., 96-99, 1949) on the basis of the different mortality rates observed.

[2] = test system: isolated left auricle of the Guinea pig; assay: inotropic activity: contractile force of isolated, electrically stimulated left auricle (Lumley, Broadley and Levy technique; cumulative method of Van Rossum); details: for EC50 / Emax: Cavia porcellus; for EC50 / Inotropic action pD2: 36° C., cumulative concentrations, minimum of three dose-action curves; for EC50: read-out: Inotropic action pD2 (converted); for Emax / Inotropic action α (intrinsic activity): relative to dopamine; for Emax: α=1, read-out: Inotropic action α (intrinsic activity); for Inotropic action α (intrinsic activity): α=1
From the text: The technique used is that of P. Lumley, K. J. Broadley and G. P. Levy described in Cardiovascular Research, 11, 17-25, 1977. This technique is used to study the β1 cardiac inotrope function; the β1 receptors being cardiac in the Guinea pig as in man, the results obtained with the Guinea pig are applicable to man.
Guinea pigs of either sex are killed by a knock and bled; the left auricle is rapidly removed and immediately immersed in a Kreibs-Henseleit solution, the temperature being thermostatically maintained at 36° C. and aerated by a mixture of O2 and CO2 (95% and 5%). Two linen threads are attached to its ends: one is used to make contact between the auricle and a silver negative stimulating electrode, the other serves to connect the preparation to an isometric myograph (F-50 NARCO) and then to a recording system (Physiograph type M-K III NARCO).
Some 60 minutes are needed to ensure stability of the preparation.
Throughout the test, the auricle is activated electrically by a neurostimulator (Equipment Industriel II): voltage: supramaximum--width: 5 milli/sec.--frequency: 90 to 120 beats per minute.
Agonists, reference substances or compounds according to the invention, are added to the nutrient medium using the cumulative method of Van Rossum (Arch. Inter. Pharmacodyn., 143, 299-330, 1963). After adding each given amount of agonists, three minutes are allowed to pass before a further given amount of the product under study is added according to the method described above. The response of the organ to each concentration was assessed by the resultant increase in contractile force measured in gram. This was expressed as a percentage of the maximum increase (100%) for each compound and a dose-action curve was plotted. The agonist effect was quantified by calculating pD2 (E. J. Ariens and J. M. Van Rossum., Arch. Intern. Pharmacodyn. CX, No. 2, 2, 19 and Arch. Inter. Pharmacodyn. 143, 299-330, 1963) which characterizes the affinity of the compound under test for the receptors.
The agonist effect was also characterized by the intrinsic activity […] which defines the relative power of the agonist with respect to a standard which, in the tests, was dopamine, the intrinsic activity of which is taken arbitrarily to be α=1.
The results obtained are shown in table II below, it being assumed that:
the higher the value of pD2 and the more marked the affinity of the compound under test for the receivers, and
the higher the value of α, the better is the intrinsic activity.

SMILES | LD50 at 168 h [1] [mg/kg] | EC50 [2] [µM] | Emax [2] [%] | other results
CCN(CC)CCN1CCN(CC2CC2)CC1C (centres unmarked) [compound 25] | 150 |  |  | 
CC(CN1CCN(CC2CC2)CC1)C(=O)O (centres unmarked) [compound 7] | 190 |  |  | 
COc1ccc(OCC(=O)N2CCN(CC3CC3)CC2)cc1 [compound 21] | 115 | 22.4 | 69 | 
COc1cc(C(=O)N2CCN(CC3CC3)CC2C)cc(OC)c1OC (centres unmarked) [compound 38] | 130 |  |  | 
COc1cc(C(=O)N2CCN(CC3CC3)CC2)cc(OC)c1OC [compound 17] | 245 |  |  | Inotropic action pD2 [2]: 3.50; Inotropic action α (intrinsic activity) [2]: 0.19
CC1CN(CC2CC2)CCN1CCN1CCCCCC1 (centres unmarked) [compound 28] | 95 |  |  | 
O=C(C=Cc1cccc(C(F)(F)F)c1)N1CCN(CC2CC2)CC1 [compound 19] | 95 |  |  | 
O=C(COc1ccc(F)cc1)N1CCN(CC2CC2)CC1 [compound 22] | 100 | 17.8 | 48 | 
CC(=O)c1ccc(N2CCN(CC3CC3)CC2)cc1 [compound 12] | 90 | 55 | 82 | 
CCN(CC)CCCN1CCN(CC2CC2)CC1C (centres unmarked) [compound 30] | 135 |  |  | 
CC1CN(CC2CC2)CCN1CCCN1CCCCCC1 (centres unmarked) [compound 33] | 130 |  |  | 
CC1CN(CC2CC2)CCN1Cc1ccc2c(c1Cl)OCO2 (centres unmarked) [compound 36] | 65 |  |  | 
CC1CN(CC2CC2)CCN1 (centres unmarked) [compound 23] | 280 | 178 | 75 | 
O=C(c1ccc2c(c1)OCO2)N1CCN(CC2CC2)CC1 [compound 15] | 155 | 363 | 88 | 
COc1ccccc1N1CCN(CC2CC2)CC1 [compound 10] | 34 |  |  | 
CC1CN(CC2CC2)CCN1CCN1CCOCC1 (centres unmarked) [compound 29] | 250 |  |  | 
CC1CN(CC2CC2)CCN1CCCN1CCOCC1 (centres unmarked) [compound 34] | 215 | 5.13 | 24 | 
CC1CN(CC2CC2)CCN1CC1CC1 (centres unmarked) [compound 13] | 104 | 3.63 | 36 | 
CC(CN1CCN(CC2CC2)CC1)C(=O)NCc1ccccc1 (centres unmarked) [compound 8] | 245 | 53.7 | 57 | 

SMILES | LD50 at 168 h [1] [mg/kg] | EC50 [2] [µM] | Emax [2] [%] | other results
CCOC(=O)Oc1c(OC)cc(C(=O)N2CCN(CC3CC3)CC2)cc1OC [compound 18] | 225 |  |  | 
COc1cc(C=CC(=O)N2CCN(CC3CC3)CC2)cc(OC)c1OC [compound 20] | 52 | 776 | 49 | 
CC1CN(CC2CC2)CCN1CCCN1CCCCC1 (centres unmarked) [compound 32] | 162 | 0.525 | 12 | 
CC1CN(CC2CC2)CCN1CCCN1CCCC1 (centres unmarked) [compound 31] | 165 | 26.9 | 25 | 
OCCN1CCN(CC2CC2)CC1 [Code No. 5] | 460 |  |  | 
COc1cc(C(=O)N2CCN(CC3CC3)CC2)cc(OC)c1OC [compound 16] |  |  |  | Inotropic action pD2 [2]: 5.06; Inotropic action α (intrinsic activity) [2]: 0.52; mortality at 168 h ([1]; 100 mg/kg i.v.): 30%
CCOC(=O)N1CCN(CC2CC2)CC1 [6a] | 41 | 1260 | 58 | 
COc1cc(C(=O)N2CCN(CC3CC3)CC2C)cc(OC)c1OC(C)=O (centres unmarked) [compound 39] | 225 | 25.7 | 69 | 
CC1CN(CC2CC2)CCN1CCN1CCCCC1 (centres unmarked) [compound 27] | 155 | 47.9 | 40 | 
CC1CN(CC2CC2)CCN1Cc1ccc2c(c1)OCO2 (centres unmarked) [compound 35] | 77 | 5.25 | 17 | 
C1CC1CN1CCN(CC2CC2)CC1 [3a] | 110 | 30.2 | 69 | 
FC(F)(F)c1cccc(N2CCN(CC3CC3)CC2)c1 [compound 11] | 30 |  |  | 
c1ccc(CN2CCN(CC3CC3)CC2)cc1 [compound 14] | 46 |  |  | 
CC1CN(CC2CC2)CCN1CCN(C)C (centres unmarked) [compound 24] | 200 |  |  | 
CC1CN(CC2CC2)CCN1CCN1CCCC1 (centres unmarked) [compound 26] | 158 | 14.1 | 32 | 
CN1CCN(CC2CC2)CC1 [Code No. 2] | 320 | 112 | 48 | 
CC1CN(CC2CC2)CCN1Cc1csc2ccccc12 (centres unmarked) [compound 37] | 40 |  |  | 
CCCCCN1CCN(CC2CC2)CC1 [Code No. 4] | 37.5 |  |  | 
